Article PMC6028453, “BrlR from Pseudomonas aeruginosa is a receptor for both cyclic di-GMP and pyocyanin” (Nature Communications, 2018)

Legend:
BrlR [1] = biological target: T1, BrlR (Pseudomonas aeruginosa, UniProt Q9HUT5); test: Surface plasmon resonance (SPR) analysis; assay type: binding; settings: SPR, immobilized BrlR; for Kd: steady state, 25 °C
T1 construct: His6-SUMO (N, cleaved yes); made in house; host or cells: E. coli BL21 DE3
Method: The binding affinity of diverse toxic compounds for BrlR were investigated by SPR using a BIAcore-T200 apparatus (GE Healthcare). The ligand, BrlR (20 μM in 10 mM sodium acetate, pH 4.5), was immobilized on an activated CM5 sensor chip by amine coupling (BIAcore) with 4400 response units (RU), and the unreacted sites were blocked with 1.0 M ethanolamine–HCl (pH 8.5). Steady-state binding analysis was performed with injections of different molecules at different concentrations over the immobilized BrlR surface at a flow rate of 20 μL min^−1 at 25 °C. Association was measured for 180 s, followed by 120 s of dissociation in running buffer (20 mM Hepes pH 7.5, 150 mM NaCl). The sensorgrams for specific interactions were obtained by subtracting the reference unimmobilized flow cell response from that of the sample. Since BrlR only has one binding site for pyocyanin or other toxic compounds (Fig. 5a–f), the kinetic analysis of the sensorgrams from analyte interaction with the immobilized BrlR was performed by fitting the binding curves to a 1:1 binding model. To determine the steady state KD values, equilibrium responses were plotted against analyte concentrations, and the resulting curves were fitted to the steady state model in the BIAevaluation software package, version 3.0 (GE Healthcare).

BrlR [2] = biological target: T1, BrlR; test: Fluorescence polarization (FP) binding assay, wild-type BrlR; settings: 1 nM fluorescent ligand, 25 °C
From the text: The most striking feature of the BrlR–c-di-GMP complex is the c-di-GMP-binding mode. The DNA-binding domain contains two separate c-di-GMP-binding sites, and shares a mutually intercalated c-di-GMP dimer in a stacking conformation with a crystallographic symmetry related binding site (Fig. 2a–c). […] The interactions stabilizing the c-di-GMPs are different for the two binding sites (Fig. 2d, e, and details are described in Supplementary Note 1). […] This structural feature allows us to perform fluorescence polarization (FP)-based binding assays[19],[23],[24] by using a fluoresceinated c-di-GMP analog, 2′-Fluo-AHC-c-di-GMP (F-c-di-GMP), containing a fluorophore attached to one of the 2′-ribose hydroxyls (Fig. 2f).
F-c-di-GMP and F-c-di-AMP both contain a fluorophore at one of the 2′-ribose hydroxyls of c-di-GMP and c-di-AMP, respectively (Fig. 2f). To measure the binding of c-di-GMP and c-di-AMP to BrlR variants, 1 nM F-c-di-GMP or F-c-di-AMP was incubated with increasing amounts of indicated BrlR WT, BrlR mutation, or BrlR-C in reaction buffer (25 mM HEPES, 100 mM NaCl, pH 7.5) at 25 °C for 20 min. 1 nM fluorescein was incubated with BrlR WT in the same reaction buffer at 25 °C. FP measurements were conducted on a Synergy 4 Microplate Reader (BioTek) at 25 °C. All experiments were performed in triplicate. The curves were fitted to deduce binding affinities by GraphPad Prism 5.

BrlR-C = biological target: T2, BrlR-C (Pseudomonas aeruginosa, UniProt Q9HUT5); test: FP competition experiment, BrlR-C; assay type: binding; settings: 550 μM BrlR-C, 1 nM F-c-di-GMP
T2 construct: His6 (cleaved yes); made in house; host or cells: E. coli (same protocol as BrlR, induction at 18 °C)
Method: Supplementary Figure 11: FP analyses of F-c-di-GMP binding to BrlR-C. (a) Isotherms of BrlR-C binding to F-c-di-GMP. The binding experiment was carried out at 25 °C in a buffer containing 150 mM NaCl, 25 mM Tris·HCl (pH 7.5), and 1 nM F-c-di-GMP. Increasing concentrations of BrlR-C were titrated into the reaction mixture to obtain the binding isotherms. (b) Fluorescence polarization competition experiment of BrlR-C. As a control, 550 μM BrlR-C was added to the reaction tube containing 1 nM F-c-di-GMP, and different competitors were respectively added in the solution and the values of millipolarization were recorded.
(1 picture or pasted object on this page, not shown here)

BrlR-DNA binding (PbrlR) = biological target: T3, BrlR-DNA binding (PbrlR) (Pseudomonas aeruginosa, UniProt Q9HUT5); test: EMSA, wild-type BrlR with PbrlR DNA; assay type: biochemical; settings: wild-type BrlR, increasing concentrations of compound
T3 construct: His6-SUMO (N, cleaved yes); made in house; host or cells: E. coli BL21 DE3
Method: A 6-carboxy-fluorescein (FAM)-labeled 36-bp brlR promoter DNA (PbrlR) or 80-bp mexA/mexE promoter DNA (PmexA/PmexE) probes (~0.375 pmol), BrlR protein and varying amounts of inducers were incubated in binding buffer (10 mM Tris HCl [pH 7.4], 50 mM KCl, 1 mM DTT, […] and 5 ng/mL poly [dI-dC]) for 60 min at 25 °C. Finally, glycerol was added to a concentration of 6.5%. The samples were subjected to a 5% polyacrylamide gel electrophoresis and run in 0.5 × Tris-borate-EDTA buffer at 80 V for 1 h at room temperature. Imaging and data analyses were performed using a Typhoon Scanner (GE Healthcare) and Imagequant software. The probes used are listed in Supplementary Table 1.

P. aeruginosa PAO1 = test: Planktonic antibiotic susceptibility testing, PAO1; assay type: cell-based, Pseudomonas aeruginosa; settings: for decrease of CFU number (log reduction): PAO1, 50 μg/ml tobramycin 1 h; for reduction in CFU number: cells harboring pHERD20T-PA2133 (low c-di-GMP), 50 μg/ml tobramycin 1 h
Method: To determine the role of pyocyanin in antimicrobial susceptibility, P. aeruginosa strains (Supplementary Table 2) were grown at 37 °C in 20-fold diluted LB medium supplemented with or without 0.2 mM pyocyanin, which was purified from stationary phase cultures of PAO1. Tobramycin was added to the mid-log phase (OD600 = 0.8) cells suspension to a final concentration of 50 μg/ml; after 1 h, the broth was serially diluted and spread-printed onto LB agar (medium containing 300 μg/ml carbenicillin was used for the cells harboring plasmid) to determine the cell viability via CFU counts. The cell suspensions without tobramycin were set as controls. Susceptibility is expressed as a logarithmic reduction in CFU amount. The data were analyzed with a one-tailed t-test (***P ≤ 0.001).

brlR transcription = test: qRT-PCR of brlR transcript; assay type: cell-based, P. aeruginosa PAO1; settings: ΔphzMSH strain still produces PCA; strain PAO1
Method: PAO1 WT strains were grown under different conditions. For c-di-GMP effects, overexpression of PA4843 in PAO1 (PAO1/pHERD20T-PA4843) relative to WT cells (PAO1/ pHERD20T) was determined. When P. aeruginosa strains entered mid-log phase, arabinose was added to induce gene expression. To test pyocyanin’s effect, a P. aeruginosa PAO1 WT strain cells with high pyocyanin production was determined relative to a ΔphzA1-G1/phzA2-G2 strain not producing phenazine and a ΔphzMSH strain not producing pyocyanin.
Total RNA was extracted using a MiniBEST Universal RNA Extraction Kit (TaKaRa) and cDNA synthesis was performed using a PrimeScript RT reagent Kit (TaKaRa). Primers for RT-PCR listed in Supplementary Table 1 were designed using the program PrimerExpress (Applied Biosystems). The RT-PCR reactions were performed on a CFX96 Real-Time PCR Detection System (Bio-Rad) using SYBR Premix Ex Taq™ (TaKaRa). Expression of the target genes was normalized to the expression of 16 S RNA. The relative transcript abundance was calculated according to the 2^−ΔΔCt method. Five biological replicates were performed per sample. The data were analyzed with a one-tailed t-test (***P ≤ 0.001).

BrlR [3] = biological target: T4, BrlR (UniProt Q9HUT5 1-270); test: EMSA; pyocyanin (enhances); settings: protein: recombinant; tags: none (His6-SUMO removed); chain copies: 4; label: 5' FAM on strand 1; blunt
T4 sequence: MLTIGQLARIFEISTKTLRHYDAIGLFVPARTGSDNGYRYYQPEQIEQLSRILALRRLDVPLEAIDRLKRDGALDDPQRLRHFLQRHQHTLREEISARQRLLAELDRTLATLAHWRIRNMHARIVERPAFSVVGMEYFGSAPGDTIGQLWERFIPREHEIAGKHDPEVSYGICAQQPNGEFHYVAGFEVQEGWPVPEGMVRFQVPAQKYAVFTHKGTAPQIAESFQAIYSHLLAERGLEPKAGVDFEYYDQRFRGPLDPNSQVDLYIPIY

[4] = biological target: the molecule itself; test: crystal structure; apo-BrlR, 3.1 Å, space group P65, four BrlR molecules in the asymmetric unit; crystals from 1.8 M sodium acetate pH 7.0, 0.1 M Bis-Tris propane pH 7.0, 20 °C

CN(C)[C@@H]1C(O)=C(C(N)=O)C(=O)[C@@]2(O)C(O)=C3C(=O)c4c(O)cccc4[C@@](C)(O)[C@H]3C[C@@H]12 [tetracycline]
binding to BrlR in SPR (in words) (BrlR [1]): signals were not sufficiently high

CCn1cc(C(=O)O)c(=O)c2cc(F)c(N3CCNCC3)cc21 [norfloxacin]
binding to BrlR in SPR (in words) (BrlR [1]): signals were not sufficiently high

O=C1OC2(c3ccc(O)cc3Oc3cc(O)ccc32)c2ccccc21 [fluorescein]
Kd (BrlR [2]): 33.6 ± 1.6 µM

NC[C@H]1O[C@H](O[C@H]2[C@H](O)[C@@H](O[C@H]3O[C@H](CO)[C@@H](O)[C@H](N)[C@H]3O)[C@H](N)C[C@@H]2N)[C@H](N)C[C@@H]1O [tobramycin]
competition with F-c-di-GMP binding to BrlR-C (BrlR-C): outcompeted
Kd (BrlR [1]): 640 µM
effect on BrlR-PbrlR DNA binding (in words) (BrlR-DNA binding (PbrlR)): did not result in an observable difference
decrease of CFU number (log reduction) (P. aeruginosa PAO1; absence of pyocyanin): ~ 3.4 order of magnitude
decrease of CFU number (log reduction) (P. aeruginosa PAO1; presence of 0.2 mM pyocyanin): ~ 1.5 order of magnitude
reduction in CFU number (P. aeruginosa PAO1; with addition of pyocyanin): 1.7 order of magnitude
reduction in CFU number (P. aeruginosa PAO1; without pyocyanin): 4.3 order of magnitude

CNC(C)C1CCC(N)C(OC2C(N)CC(N)C(OC3OCC(C)(O)C(NC)C3O)C2O)O1 (centres unmarked) [Gentamicin]
Kd (BrlR [1]): ~470 µM

Nc1ncnc2c1ncn2[C@@H]1O[C@@H]2COP(=O)(O)O[C@H]3[C@@H](O)[C@H](n4cnc5c(N)ncnc54)O[C@@H]3COP(=O)(O)O[C@H]2[C@H]1O [c-di-AMP]
effect on BrlR-PbrlR DNA binding (in words) (BrlR-DNA binding (PbrlR)): significantly promoted

O=C(O)c1cccc2nc3ccccc3nc12 [PCA, phenazine-1-carboxylic acid]
effect on brlR transcription (brlR transcription): could not up-regulate

Nc1ncnc2c1ncn2[C@@H]1O[C@H](COP(=O)(O)O)[C@@H](O)[C@H]1O [AMP]
binding to BrlR in SPR (in words) (BrlR [1]): does not bind

B1: PmexA (dsDNA)
DNA 1: ACACCTATGAATGTAAGTATTTTGCCTGCCTTCTTCGAGCCGGTGCAGCGCCTTCACGCTGCATCGGCCGCTTTCGCT
DNA 2: AGCGAAAGCGGCCGATGCAGCGTGAAGGCGCTGCACCGGCTCGAAGAAGGCAGGCAAAATACTTACATTCATAGGTGT
binding result (BrlR [3]): binds

B2: BrlR (PA4878) (natural protein)
chain: T4 sequence
notes: also called apo-BrlR; BrlR WT; source: E. coli BL21 DE3, purified (Ni-NTA, tag cleaved by UlpI, Source Q, Superdex 200); not shown: His6-SUMO, N-terminal, cleaved
stoichiometry N [4]: 4

B3: PmexE (dsDNA)
DNA 1: AATCTCGTCGTTCGATTAGTTCCCTGCCGGAGCAGCCCGCAGACTTCGCCAATCCCGAAAAACCGACTGGCGGAGT
DNA 2: ACTCCGCCAGTCGGTTTTTCGGGATTGGCGAAGTCTGCGGGCTGCTCCGGCAGGGAACTAATCGAACGACGAGATT
binding result (BrlR [3]): binds
